How the values were obtained:
guinea pig myopia model = experiment: Test on suppression of myopia progression (axial length elongation and refractive error) in guinea pig myopia model; format: in vivo, guinea pig (Slc:Hartley); conditions: for Difference of axial lengths / Difference of refraction: 10 μL topical to goggled right eye once daily 14 days, right eye − left eye, average n=6; for Difference of axial lengths / Difference of refraction / Suppression rate of axial length elongation / Suppression rate of refraction / Suppression rate of refractive error: day 14; for Suppression rate of axial length elongation / Suppression rate of refraction / Suppression rate of refractive error: vs vehicle control group
Experimental: According to the following procedures, the effect of AFDX0250 on the suppression of myopia progression (the axial length elongation and the refractive error) was evaluated.
AFDX0250 was dissolved in purified water with a buffering agent and a tonicity agent to prepare 0.5% AFDX0250 solution. 1 mol/L sodium hydroxide reagent solution or dilute hydrochloric acid was added to the solution to adjust the pH thereof to neutral. Also, a buffering agent and a tonicity agent were dissolved in purified water to prepare a neutral vehicle. 9.8 mL of the vehicle was mixed with 0.2 mL of 0.5% AFDX0250 solution and stirred to prepare 0.01% AFDX0250 solution. 3 mL, 4 mL and 4.5 mL of the vehicles were mixed with 2 mL, 1 mL and 0.5 mL of 0.01% AFDX0250 solutions, respectively, and stirred to prepare 0.004%, 0.002% and 0.001% AFDX0250 solutions.
A test tube with a diameter of 18 mm was cut off at the level of 10 mm from the bottom, and the cut-off bottom part was glued to one side of Velcro tape (about 20 mm square) with a hole of an appropriate diameter in the center with an adhesive agent to prepare a lens (goggle). 3-week-old guinea pigs (Slc:Hartley) (n=30) were obtained, and the prepared goggle was covered to the right eye of each guinea pig with an adhesive agent to induce myopia to the guinea pigs. The left eye thereof without goggle was used as control.
The […] group, 0.004% AFDX0250 solution administration group, […] group (control group) (n=6 per group). In the AFDX0250 solution administration groups, 10 μL of the AFDX0250 solution in each concentration was topically administered to the right eye of each guinea pig once daily for 14 days from the day when the right eye was covered with the goggle (day 0) to day 13. In the control group, 10 μL of the vehicle was topically administered to the right eye of each guinea pig once daily for 14 days from the day when the right eye was covered with the goggle (day 0) to day 13. In the all groups, 10 μL of the vehicle was topically administered to the left eye at the same frequency of administration as that of each group daily for 14 days from day 0 to day 13. The guinea pigs were reared under a normal rearing condition.
On day 14 from the myopia induction, the axial lengths of right and left eyeballs were measured with an ultrasound axial length measurement device ECHOSCAN US-500 (A-scan) (NIDEK CO., LTD.), and the refractions were measured with the auto refractometer AR-1a (NIDEK CO., LTD.). The difference of axial lengths and the suppression rate of the axial length elongation as well as the difference of refraction and the suppression rate of the refractive error were calculated according to the following formulae. The calculation was performed in Microsoft Excel. Difference of axial lengths (mm)=Axial length of right eye (mm)−Axial length of left eye (mm) Suppression rate of axial length elongation (%)=(1−Difference of axial lengths in AFDX0250 solution administration group/Difference of axial lengths in control group)×100 (Formula) Difference of refraction (D)=Refraction of right eye (D)−Refraction of left eye (D) Suppression rate of refractive error (%)=(1−Difference of refraction in AFDX0250 solution administration group/Difference of refraction in control group)×100 (Formula) (Test Result)
AFDX0250 was dissolved in purified water with a buffering agent and a tonicity agent to prepare 0.5% AFDX0250 solution. 1 mol/L sodium hydroxide reagent solution or dilute hydrochloric acid was added to the solution to adjust the pH thereof to neutral. Also, a buffering agent and a tonicity agent were dissolved in purified water to prepare a neutral vehicle. 4 mL and 4.8 mL of vehicles were mixed with 1 mL and 0.2 mL of 0.5% AFDX0250 solutions, respectively, and stirred to prepare 0.1% and 0.02% of AFDX0250 solutions. Also, 4 mL of the vehicle was mixed with 1 mL of 0.02% AFDX0250 solution and stirred to prepare 0.004% AFDX0250 solution. […]

guinea pigs = experiment: Evaluation of mydriatic action (pupil diameter, pupillary light reflex) after repeated topical administration to one eye; format: in vivo, guinea pig; conditions: for Pupil diameter before administration / Decreased pupillary light reflex / Maximum pupil diameter / Measurement time of maximum pupil diameter: 10 μL topical to left eye once daily 5 days; for Pupil diameter before administration: before administration on day 5, average of 3 guinea pigs; for Decreased pupillary light reflex / Measurement time of maximum pupil diameter: day 5; for Maximum pupil diameter: longest average diameter among measurement times on day 5
Experimental: An atropine solution was repeatedly topically administered to one eye of a guinea pig to evaluate the effect of the solution on mydriasis.
Atropine sulfate hydrate and glycerin were dissolved in water for injection to prepare 0.001%, 0.0003% and 0.0001% atropine solutions without adjusting the pH.
Each of the prepared solutions was topically administered to the left eye of guinea pigs (the left eyes of 3 guinea pigs for each solution) in a volume of 10 μL once daily for 5 days. The pupil diameter of each guinea pig was measured before the administration on day 5 as well as 1, 2 and 4 hours after the administration to observe the pupillary light reflex. The measured pupil diameters of each guinea pig at each measurement time were averaged to obtain the average value. The obtained average value was defined as the average pupil diameter. Among each average pupil diameter at each measurement time, the longest diameter was defined as the maximum pupil diameter.

[1] = Example 1, 0.001% solution, topical once daily 14 days
[2] = Example 1, 0.002% solution, topical once daily 14 days
[3] = Example 1, 0.004% solution, topical once daily 14 days
[4] = Example 1, 0.01% solution, topical once daily 14 days
[5] = Example 2, 0.004% solution, topical once daily 14 days
[6] = Example 2, 0.02% solution, topical once daily 14 days
[7] = Example 2, 0.1% solution, topical once daily 14 days
[8] = Example 2, 0.5% solution, topical once daily 14 days
[9] = Comparative Example 3, 0.0001% solution
[10] = Comparative Example 3, 0.0003% solution
[11] = Comparative Example 3, 0.001% solution

## CCN(CC)CC1CCCCN1CC(=O)N1c2ccccc2C(=O)Nc2cccnc21 (single isomer, unassigned; (+)) [AFDX0250, (+)-11-[2-[2-[(diethylamino)methyl]-1-piperidinyl]acetyl]-5,11-dihydro-6H-pyrido[2,3-b][1,4]benzodiazepin-6-one]
Guinea pig myopia model; Example 1, 0.001% solution
  Difference of axial lengths: 0.17 mm
  Difference of refraction: −6.12 D
Guinea pig myopia model; [1]
  Suppression rate of axial length elongation: 15.85%
  Suppression rate of refraction: 22.78%
Guinea pig myopia model; Example 1, 0.002% solution
  Difference of axial lengths: 0.09 mm
  Difference of refraction: −2.78 D
Guinea pig myopia model; [2]
  Suppression rate of axial length elongation: 55.46%
  Suppression rate of refraction: 64.95%
Guinea pig myopia model; Example 1, 0.004% solution
  Difference of axial lengths: 0.07 mm
  Difference of refraction: −2.39 D
Guinea pig myopia model; [3]
  Suppression rate of axial length elongation: 63.39%
  Suppression rate of refraction: 69.80%
Guinea pig myopia model; Example 1, 0.01% solution
  Difference of axial lengths: 0.06 mm
  Difference of refraction: −3.63 D
Guinea pig myopia model; [4]
  Suppression rate of axial length elongation: 68.58%
  Suppression rate of refraction: 54.19%
Guinea pig myopia model; Example 2, 0.004% solution
  Difference of axial lengths: 0.07 mm
  Difference of refraction: −3.25 D
Guinea pig myopia model; [5]
  Suppression rate of axial length elongation: 66.85%
  Suppression rate of refractive error: 59.27%
Guinea pig myopia model; Example 2, 0.02% solution
  Difference of axial lengths: 0.05 mm
  Difference of refraction: −2.52 D
Guinea pig myopia model; [6]
  Suppression rate of axial length elongation: 74.16%
  Suppression rate of refractive error: 68.43%
Guinea pig myopia model; Example 2, 0.1% solution
  Difference of axial lengths: 0.04 mm
  Difference of refraction: −2.05 D
Guinea pig myopia model; [7]
  Suppression rate of axial length elongation: 79.21%
  Suppression rate of refractive error: 74.35%
Guinea pig myopia model; Example 2, 0.5% solution
  Difference of axial lengths: 0.02 mm
  Difference of refraction: −2.03 D
Guinea pig myopia model; [8]
  Suppression rate of axial length elongation: 88.48%
  Suppression rate of refractive error: 74.64%
Guinea pig myopia model; summary of Examples 1 and 2 (AFDX0250) and Comparative Examples 1 and 2 (AFDX0116), topical once daily 14 days
  Effect on the axial length elongation and the refractive error (summary in words): strongly suppressed the axial length elongation and the refractive error
Guinea pigs; guinea pig, in vivo
  Mydriatic action (pupil diameter and pupillary light reflex, in words): increased the pupil diameter and decreased the pupillary light reflex

## CN1[C@@H]2CC[C@H]1CC(OC(=O)C(CO)c1ccccc1)C2.CN1[C@@H]2CC[C@H]1CC(OC(=O)C(CO)c1ccccc1)C2.O.O=S(=O)(O)O (stereo partly shown) [atropine, Atropine sulfate hydrate]
Guinea pigs; [9]
  Pupil diameter before administration: 2.3 mm
  Decreased pupillary light reflex: 0/3
  Maximum pupil diameter: 2.8 mm
Guinea pigs; [10]
  Pupil diameter before administration: 3.0 mm
  Decreased pupillary light reflex: 1/3
  Measurement time of maximum pupil diameter: 1 h
  Maximum pupil diameter: 3.8 mm
Guinea pigs; Comparative Example 3, 0.001% and 0.0003% atropine solution administration groups
  Mydriatic action (pupil diameter and pupillary light reflex, in words): the increased pupil diameter and the decreased pupillary light reflex were found
Guinea pigs; [11]
  Pupil diameter before administration: 2.6 mm
  Decreased pupillary light reflex: 3/3
  Measurement time of maximum pupil diameter: 1 h
  Maximum pupil diameter: 4.9 mm

— US12714715B2, “Agent for treating myopia, preventing myopia and/or suppressing myopia progression” (SANTEN PHARMACEUTICAL CO., LTD., priority 2020, dated 2026)
